Assay results reported in ChEMBL document CHEMBL1126161, “3,4-Dihydroquinolin-2(1H)-ones as combined inhibitors of thromboxane A2 synthase and cAMP phosphodiesterase” (J Med Chem, 1992).

What was measured:
Rattus norvegicus [1] = test: Antihypertensive activity in conscious spontaneously hypertensive rat (SHR), percent change in heart rate (beats/min) after 4 hr at 10 mg/kg peroral dose; type: functional; conditions: route oral
Rattus norvegicus [2] = test: Ex vivo inhibition of blood platelet aggregation in rats at 50 mg/kg peroral dose after 5 hr; type: functional; conditions: route oral
Rattus norvegicus [3] = test: (§1) Antihypertensive activity in conscious spontaneously hypertensive rat (SHR), percent change in Systolic blood pressure (SBP) at 0.3 mg/kg peroral dose after 12 hr; type: functional; conditions: route oral
Mus musculus [4] = test: Time course of protection against mortality in a pulmonary thromboembolism model in mice after -7hr at 10 mg/kg; type: functional
Rattus norvegicus [5] = test: Antihypertensive activity in conscious spontaneously hypertensive rat (SHR), percent change in heart rate (beats/min) after 2 hr; type: functional
Mus musculus [6] = test: Time course of protection against mortality in a pulmonary thromboembolism model in mice after -1 hr at 10 mg/kg; type: functional
Rattus norvegicus [7] = test: Antihypertensive activity in conscious spontaneously hypertensive rat (SHR), percent change in heart rate (beats/min) after 8 hr at 3 mg/kg peroral dose; type: functional; conditions: route oral
Mus musculus [8] = test: Protection against mortality in pulmonary thromboembolism model in mice at 6 mg/kg; type: functional
Mus musculus [9] = test: Time course of protection against mortality in a pulmonary thromboembolism model in mice after -3 hr at 10 mg/kg; type: functional
Mus musculus [10] = test: Protection against mortality in pulmonary thromboembolism model in mice at 3 mg/kg; type: functional
Rattus norvegicus [11] = test: Antihypertensive activity in conscious spontaneously hypertensive rat (SHR), percent change in Systolic blood pressure (SBP) at 0.3 mg/kg peroral dose after 8 hr; type: functional; conditions: route oral
Mus musculus [12] = test: Protection against mortality in pulmonary thromboembolism model in mice at 9 mg/kg; type: functional
Rattus norvegicus [13] = test: Antihypertensive activity in conscious spontaneously hypertensive rat (SHR), percent change in heart rate (beats/min) after 2 hr at 3 mg/kg peroral dose; type: functional; conditions: route oral
Rattus norvegicus [14] = test: (§2) Antihypertensive activity in conscious spontaneously hypertensive rat (SHR), percent change in Systolic blood pressure (SBP) at 3 mg/kg peroral dose after 2 hr; type: functional; conditions: route oral
Mus musculus [15] = test: Protection against mortality in pulmonary thromboembolism model in mice at 1 mg/kg; type: functional
Rattus norvegicus [16] = test: Ex vivo inhibition of blood platelet aggregation in rats at 50 mg/kg peroral dose after 3 hr; type: functional; conditions: route oral
Rattus norvegicus [17] = test: Antihypertensive activity in conscious spontaneously hypertensive rat (SHR), percent change in heart rate (beats/min) after 12 hr at 0.3 mg/kg peroral dose; type: functional; conditions: route oral
Homo sapiens [18] = species on record: Homo sapiens; test: Inhibition of ADP-induced aggregation of human PRP in the absence of pig aortal microsomes (PAM); type: functional
Homo sapiens [19] = species on record: Homo sapiens; test: Ratio of IC50(PDE)/IC50(TXA2); type: functional
Rattus norvegicus [20] = test: Antihypertensive activity in conscious spontaneously hypertensive rat (SHR), percent change in heart rate (beats/min) after 8 hr at 0.3 mg/kg peroral dose; type: functional; conditions: route oral
Mus musculus [21] = test: Protection against mortality in pulmonary thromboembolism model in mice at 30 mg/kg; type: functional
Rattus norvegicus [22] = test: as §2; type: functional; conditions: route oral; remark: listed apart in the source
Rattus norvegicus [23] = test: Antihypertensive activity in conscious spontaneously hypertensive rat (SHR), percent change in heart rate (beats/min) after 2 hr at 10 mg/kg peroral dose; type: functional; conditions: route oral
Homo sapiens [24] = species on record: Homo sapiens; test: Ratio of IC50(w/oPAM)/IC50(w/PAM); type: functional
Rattus norvegicus [25] = test: Ex vivo inhibition of blood platelet aggregation in rats at 50 mg/kg peroral dose 8 hr; type: functional; conditions: route oral
Phosphodiesterase 3 = Phosphodiesterase 3 (Homo sapiens, UniProt Q14432+Q13370); test: Inhibition of human blood platelet c-AMP phosphodiesterase
Mus musculus [26] = test: Protection against mortality in pulmonary thromboembolism model in mice at 12 mg/kg; type: functional
Rattus norvegicus [27] = test: as §1; type: functional; conditions: route oral; remark: listed apart in the source
Rattus norvegicus [28] = test: Antihypertensive activity in conscious spontaneously hypertensive rat (SHR), percent change in Systolic blood pressure (SBP) at 0.3 mg/kg peroral dose after 4 hr; type: functional; conditions: route oral

In the case of O=C1CCc2cc(/C=C/n3ccnc3)ccc2N1, the “Change in heart rate” value (Rattus norvegicus [1]) is reported as 25%, the inhibition in vivo at 50 mg/kg (Rattus norvegicus [2]) is reported as 95.9% and the “Change in systolic BP” value (Rattus norvegicus [3]) is reported as 1%. For the same compound, the survival at 10 mg/kg (Mus musculus [4]) was 0%, the “Change in heart rate” value (Rattus norvegicus [5]) was 11% and the survival at 10 mg/kg (Mus musculus [6]) was 50%. The “Change in heart rate” value (Rattus norvegicus [7]) was 21%, the survival at 6 mg/kg (Mus musculus [8]) was 50% and the survival at 10 mg/kg (Mus musculus [9]) was 20%. The survival at 3 mg/kg (Mus musculus [10]) was 20%, the “Change in systolic BP” value (Rattus norvegicus [11]) was -54% and the survival at 9 mg/kg (Mus musculus [12]) was 50%. For the same compound, the “Change in heart rate” value (Rattus norvegicus [13]) was 10%, the “Change in systolic BP” value (Rattus norvegicus [14]) was -40% and the survival at 1 mg/kg (Mus musculus [15]) was 10%. For the same compound, the inhibition in vivo at 50 mg/kg (Rattus norvegicus [16]) was 94.7%, the “Change in heart rate” value (Rattus norvegicus [17]) was -8% and the IC50 (Homo sapiens [18]) was 5.6 µM. For the same compound, the Ratio (Homo sapiens [19]) was 5.3, the “Change in heart rate” value (Rattus norvegicus [20]) was -8% and the survival at 30 mg/kg (Mus musculus [21]) was 20%. For the same compound, the “Change in systolic BP” value (Rattus norvegicus [22]) was -21%, the “Change in heart rate” value (Rattus norvegicus [23]) was 19% and the Ratio (Homo sapiens [24]) was 4.7. It also gave an inhibition in vivo at 50 mg/kg (Rattus norvegicus [25]) of 96.5%, an IC50 (Phosphodiesterase 3) of 6.4 µM and a survival at 12 mg/kg (Mus musculus [26]) of 70%. For the same compound, the “Change in systolic BP” value (Rattus norvegicus [27]) was -1% and the “Change in systolic BP” value (Rattus norvegicus [28]) was -28%.
